One cell line from the supplement of paper PMC10307832 can be followed below.

Common to all, as to assay: relative viability (nuclei count vs DMSO), 5 days (fraction); higher = more cells survive
Compound in test [1]: C1CC1C(=O)NC2=NNC3=C2C=CC(=C3)C4=CC(=CC=C4)C(=O)NC5CC5 [XMD13-2] + Cc1nc(NC(=O)N2CCC[C@H]2C(N)=O)sc1-c1ccnc(C(C)(C)C(F)(F)F)c1 [Alpelisib] (partner 2 µM)
A digest of the protocol:
(§1)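 Lung cancer cell lines were seeded in 1536-well plates and dosed by pin tool the next day, with either a single drug or a fixed anchor-drug dose combined with five library-drug doses (not always all listed) spaced in √10 steps. Five days later, one step fixed the cells and stained their nuclei (final 0.05% Triton X-100, 1% formaldehyde, 1 ug/ml Hoechst), and nuclei were counted on 4× images. Relative viability is the nuclei count in treated wells divided by the count in vehicle wells, and each value is the median of duplicate plates.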

Compound in test [2]: Cc1nc(Nc2ncc(C(=O)Nc3c(C)cccc3Cl)s2)cc(N2CCN(CCO)CC2)n1 [Dasatinib] + COc1cc2c(Oc3ccc(NC(=O)C4(C(=O)Nc5ccc(F)cc5)CC4)cc3F)ccnc2cc1OCCCN1CCOCC1 [Foretinib] (partner 0.25 µM)
The essentials: as §1

Compound in test [3]: Cc1nc(Nc2ncc(C(=O)Nc3c(C)cccc3Cl)s2)cc(N2CCN(CCO)CC2)n1 [Dasatinib] + Nc1nc2[nH]cc(CCc3ccc(C(=O)N[C@@H](CCC(=O)O)C(=O)O)cc3)c2c(=O)[nH]1 [Pemetrexed] (partner 0.2 µM)
A digest of the protocol:
as §1

Compound in test [4]: Cc1nc(Nc2ncc(C(=O)Nc3c(C)cccc3Cl)s2)cc(N2CCN(CCO)CC2)n1 [Dasatinib] + N=C(N)NC(=N)NCCc1ccccc1 [Phenformin] (partner 250 µM)
The essentials: as §1

In the case of UMC-11, the relative viability amounted to 1.22 in test [1] (first compound 0.05 µM); 1.07 in test [1] (first compound 0.1581 µM); 0.944 in test [1] (first compound 0.5 µM); 0.924 in test [1] (first compound 1.581 µM); 1.13 in test [1] (first compound 5 µM); 0.912 in test [2] (first compound 0.005 µM). For the same cell line, the relative viability came to 0.699 in test [2] (first compound 0.01581 µM); 0.696 in test [2] (first compound 0.05 µM); 0.379 in test [2] (first compound 0.1581 µM); 0.276 in test [2] (first compound 0.5 µM); 0.736 in test [3] (first compound 0.005 µM); 0.656 in test [3] (first compound 0.01581 µM). The relative viability came to 0.593 in test [3] (first compound 0.05 µM); 0.469 in test [3] (first compound 0.1581 µM); 0.391 in test [3] (first compound 0.5 µM); 0.307 in test [4] (first compound 0.005 µM); 0.332 in test [4] (first compound 0.01581 µM); 0.265 in test [4] (first compound 0.05 µM). Moreover, the relative viability in test [4] (first compound 0.1581 µM) turned out to be 0.234; in test [4] (first compound 0.5 µM), 0.171.
